Measurements taken from ChEMBL document CHEMBL1201862, “PubChem BioAssay data set” (2004).
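Values below derive from 48-hour exposures of cells grown in 96-well plates, with endpoints linearly interpolated between the two concentrations bracketing the appropriate inhibition level. Here, GI50 denotes the concentration required for 50% inhibition of growth.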 Activity calls are given as the source filed them. Cut-off read from the data, not from the text of the source: active = GI50 up to about 1.1 µM and inactive = higher.

What was measured:
Assay in all cases: NCI tumour cell line growth inhibition, 48 h
[1] = system: SNB-19
[2] = system: SK-OV-3
[3] = system: SK-MEL-5
[4] = system: HCT-116
[5] = system: HOP-92
[6] = system: SF-539
[7] = system: UACC-257
[8] = system: TK-10
[9] = system: CCRF-CEM
[10] = system: NCI-H522
[11] = system: KM-20L2
[12] = system: CAKI-1
[13] = system: SK-MEL-28
[14] = system: ACHN
[15] = system: KM12
[16] = system: EKVX
[17] = system: SF-268
[18] = system: UO-31
[19] = system: A549
[20] = system: XF498
[21] = system: OVCAR-5
[22] = system: SR
[23] = system: LXFL 529
[24] = system: NCI-H226
[25] = system: COLO 205
[26] = system: Malme-3M
[27] = system: M19-MEL
[28] = system: DMS-273
[29] = system: SNB-75
[30] = system: M14
[31] = system: SW-620
[32] = system: OVCAR-8
[33] = system: IGROV-1
[34] = system: U-251
[35] = system: HL-60
[36] = system: MOLT-4
[37] = system: DMS-114
[38] = system: A498
[39] = system: HCT-15
[40] = system: HCC 2998
[41] = system: SK-MEL-2
[42] = system: 786-0
[43] = system: OVCAR-3
[44] = system: HT-29
[45] = system: UACC-62
[46] = system: RPMI-8226
[47] = system: SF-295
[48] = system: SN12C
[49] = system: NCI-H460
[50] = system: NCI-H23
[51] = system: RXF 631
[52] = system: OVCAR-4
[53] = system: HOP-62
[54] = system: K562
[55] = system: DLD-1
[56] = system: HOP-18
[57] = system: RXF 393
[58] = system: LOX IMVI
[59] = system: SNB-78

Measured: GI50

CCOC(=O)C(=O)Nc1ccccc1C(C)C
inactive: [1] > 100 µM | [2] > 100 µM | [3] > 100 µM | [4] > 100 µM | [5] > 100 µM | [6] > 100 µM | [7] > 100 µM | [8] > 100 µM | [9] > 100 µM | [10] > 100 µM | [11] > 100 µM | [12] > 100 µM | [13] > 100 µM | [14] > 100 µM | [15] > 100 µM | [16] > 100 µM | [17] > 100 µM | [18] > 100 µM | [19] > 100 µM | [20] > 100 µM | [21] > 100 µM | [22] > 100 µM | [23] > 100 µM | [24] > 100 µM | [25] > 100 µM | [26] > 100 µM | [27] > 100 µM | [28] > 100 µM | [29] > 100 µM | [30] > 100 µM | [31] > 100 µM | [32] > 100 µM | [33] > 100 µM | [34] > 100 µM | [35] > 100 µM | [36] > 100 µM | [37] > 100 µM | [38] > 100 µM | [40] > 100 µM | [41] > 100 µM | [42] > 100 µM | [43] > 100 µM | [44] > 100 µM | [45] > 100 µM | [46] > 100 µM | [47] > 100 µM | [48] > 100 µM | [49] > 100 µM | [50] > 100 µM | [51] > 100 µM | [52] > 100 µM | [53] > 100 µM | [54] > 100 µM | [55] > 100 µM | [56] > 100 µM
> 100 µM: [39]

CC(=O)C(CN(C(C)C)C(C)C)C(c1ccccc1)c1c(O)c2ccccc2oc1=O (configuration not stated)
inactive: [1] > 100 µM | [2] > 100 µM | [3] > 100 µM | [4] > 100 µM | [6] > 100 µM | [7] > 100 µM | [8] > 100 µM | [9] > 100 µM | [10] > 100 µM | [11] > 100 µM | [12] > 100 µM | [13] > 100 µM | [14] > 100 µM | [15] > 100 µM | [16] > 100 µM | [17] > 100 µM | [18] > 100 µM | [19] > 100 µM | [57] 60.1 µM | [21] > 100 µM | [22] > 100 µM | [23] > 100 µM | [24] > 100 µM | [25] > 100 µM | [58] > 100 µM | [26] > 100 µM | [27] > 100 µM | [28] > 100 µM | [29] 16.7 µM | [30] > 100 µM | [31] > 100 µM | [32] > 100 µM | [33] > 100 µM | [34] 56.2 µM | [35] > 100 µM | [36] > 100 µM | [37] > 100 µM | [38] > 100 µM | [59] 97.1 µM | [41] > 100 µM | [42] > 100 µM | [43] > 100 µM | [44] > 100 µM | [45] > 100 µM | [46] > 100 µM | [47] > 100 µM | [48] > 100 µM | [49] > 100 µM | [50] > 100 µM | [51] > 100 µM | [52] > 100 µM | [53] > 100 µM | [54] > 100 µM | [55] > 100 µM | [56] > 100 µM
> 100 µM: [39]
